Several values for one entry are separate records, joined by “and”; a condition that tells them apart may be missing. Identical values can stand only once. Non-standard residues stand in square brackets, D forms with d.

Assay [1] relates to carotid artery thrombosis. The assay is described as follows: Ferric chloride injury-induced thrombosis model in carotid artery. The following applies: rat carotid artery, FeCl3 injury; for Dose to double patency time: control patency time 19 ± 1 min.
The next assay concerns platelets. The assay is described as follows: Thrombin-induced platelet aggregation. Format: cell-based. The method, then: The inhibitory activity of some of the peptides of the present invention toward thrombin is reflected by their ability to inhibit thrombin-mediatedplatelet aggregation as shown in FIG. 2. Platelet rich plasma containing variable concentrations of P79 is treated with thrombin. Platelet aggregation, reflected by increased light transmittance is measured on a Bio Data PAP-4 aggregometer.

The target of assay [2] is T1, thrombin (Homo sapiens, UniProt P00734). The assay is described as follows: Antithrombin activity in vitro, Ki (Table III). The following applies: first test where two are given; means for 3-5 observations. Format: biochemical. As to the method: The reactions were initiated by addition of the substrate dissolved in 0.1 M Tris-HCl buffer, pH 7.8 to a preincubated solution of enzyme (0.4 or 0.04 nM) and variable concentrations of inhibitor dissolved in the same buffer. Initial velocities were recorded and Ki values were determined graphically by weighted linear regression of Dixon plots in the case of competitive inhibition, or by the method of Baici (Baici, 1981) for hyperbolic inhibition. Fluorogenic assays were conducted using the same conditions and instrument as above operating in the fluorescence mode in the Ratio (λex=383 nm, λem=455 nm). Fluorescence intensities were calibrated with 7-amino-4-methyl coumarin solution of known concentration. The specificity of the synthetic peptides of the present invention for human α-thrombin may also be determined by comparing their relative inhibitory activities towards both human α-thrombin and bovine α-thrombin and trypsin by comparing Ki values obtained in the amidolytic assay of thrombin activity.

In assay [3] the target is T1, thrombin. As to the kind of experiment: Thrombin time in buffer containing fibrinogen (dTT). Format: biochemical. The following applies: read-out: IC50 dTT (concentration required to double thrombin time). The text has this:
*Concentration of compound required to double thrombin time in buffer

Another assay deals with human plasma clotting. As to the kind of experiment: Human plasma clotting time. Format: biochemical. Conditions: read-out: IC50 plasma clotting time (concentration required to inhibit human plasma clotting time by 50%). As to the method: Thus, for the determination of prothrombin time, 50 μl of reconstituted citrated normal human plasma (Sigma, St-Louis, Mo.) is mixed with 50 μl of thromboplastin solution at 37° C. in a 400 μl cuvette. […] The clotting time is recorded following recalcification with 100 μl of 25 mM CaCl2. The clotting time in the absence of inhibitor was between 19-22 sec.
The same procedure is adopted for the determination of activated partial thromboplastin time except that reconstituted plasma is activated for 3 minutes with cephalin (Sigma, St-Louis, Mo.).
**Concentration of compound required to inhibit human plasma clotting tim

The test system of assay [4] is platelet deposition on arterial media. As to the kind of experiment: Pig angioplasty model, ex vivo platelet deposition on arterial media. Format: in vivo. The method, then:
The study investigates the dose range required to inhibit platelet deposition on arterial media and aggregation ex vivo in the pig using a bolus and infusion regimen of the compounds of the invention. The study was carried out according to Lam, J. Y. T. et al., Circulation 84:2, August 1991, 814-820. A brief outline of the protocol follows.
Normal 3-4 month old pigs were used. In all pigs, autologous platelets were labeled with 300-400 μCi ^111 In-tropolone 18-24 hours before angioplasty. The pigs were sedated with 300 mg i.m. ketamine. After inhalation of the ether, the pigs were intubated, mechanically ventilated with room air by a respirator and maintained anesthetized with 0.5% halothane. Immediately after catheter insertion, a single bolus of heparin was administered to animals receiving platelet-inhibitor therapy and their matching controls corresponding to a dose less than 3.1 units/kg/min. Heparin was not administered to animals receiving hirudin or their matching controls.
An 8F balloon dilation catheter was advanced under fluoroscopic control through a right femoral cut down into the left and right common carotid arterial segment between the fifth and fourth vertebrae. Five inflations were performed, 30 seconds each at 6 atm with 60 seconds between inflations. The angiographic lumen diameter before dilation ranged from 5 to 6 mm during dilation, the diameter of the inflated balloon within the artery was not more than 10% greater than the original arterial lumen. […]
The platelet deposition on each dilated artery was calculated from the platelet counts and ^111 In activity on the arterial wall and in the blood obtained. The percentage of radioactivity bound to platelets was determined and the number of platelets per counts per minute was calculated from known blood platelet counts. The number of platelets deposited on the arterial segments per square centimeter was calculated by dividing the arterial segment counts per minute by both the number of platelets per counts per minute and the arterial surface area.

For assay [5], the system named is activated partial thromboplastin time. The assay is described as follows: Increase in APTT, bolus plus infusion model. Format: in vivo, rat. Details: Infusion Dose needed to cause 2-4 fold increase in APTT: unit not given here. Conditions: intravenous bolus followed by infusion.
Assay [6] relates to venous thrombosis in vena cava. As to the kind of experiment: Venous thrombosis model (balloon catheter induced-injury and stasis in vena cava). Format: in vivo, rat. Conditions: rats; for Minimum Bolus dose needed to achieve patency: i.v. bolus. As to the method:
Rats ranging in weight from 350 g-450 g were anaesthetized with urethane [50%] at 1500 mg/kg IP. The abdomen and neck were shaved and prepared for surgery.
An incision was made from the base of the sternum to approximately 10-20 mm up from the penile sheath. Another incision was made across the end of the incision (90 degree) to create a flap to be hemostat open. […] Two sutures were loosely looped around the vein(1) and the vein and artery(2), just posterior to the renal veins and arteries. All other branches coming off dorsally from the vena cava were ligated as well as any other veins which may branch of this vein (approximately 4-6 depending on rat). Two more sutures were looped around the vein(1) and artery and vein(2) at the bifurcation of the femoral vein and artery. The right jugular vein was isolated, for later injection of compound.
An incision in the upper interior leg was made and the femoral vein and artery were exposed. The femoral vein was isolated and two sutures were looped around it. One suture was ligated distally, and the other one was pulled tight (proximal) to stop blood flow through the vessel. A very small incision was made into the vein and a 2F fogarty catheter was inserted. The catheter was fed up the femoral vein to the upper sutures (near the renal veins). At this point, inject the compound via the isolated right jugular vein and wait 1 minute. At 1 minute inflate the fogarty catheter with enough saline to distend the vena cava, but still allowing the catheter to be pulled back down to the point of femoral bifurcation without bursting the vessel. This procedure was repeated 3 times. After the third passage, the catheter was removed and as quickly as possible, the femoral incision was ligated with the proximal suture and the suture which was looped around only the vena cava was ligated to stop return flow and allow thrombus growth and the timer was set for 30 minutes.
At this point, the intestines may be placed back in the body cavity, and moistened with saline if any drying has occurred, and skin kept closed with hemostat. […]

For “(D-Phe)-Pro-Arg-(CH2)4 (CO)--[NH(CH2)4 (CO)]2 -DF-(4-thiahomoGlu)-PIPL-TFA salt [BCH-2758]”, the “Dose to double patency time” value in assay [1] is 4 mg/kg. Further, the values for the IC50 in the assay with platelets, at thrombin [3] and in the assay on human plasma clotting were 10 nM, 4.9 nM and 30 nM, respectively. At thrombin [2], this substance came in with a Ki of 0.95 nM.

Take “Ac(D-Phe)-Pro-Arg-(CH2)4 (CO)--[NH--CH2 --CH=CH--CH2 --(CO)]2 -DFEPIPL-OH (Ac-[dF]PR[(CH2)4CO][NHCH2CH:CHCH2CO][NHCH2CH:CHCH2CO]DFEPIPL-OH; numbers in words are those of the source; also: Arg carbonyl bonded to (CH2)4 (non-amide backbone link)) [P184]”: the “Dose to double patency time” value in assay [1] is 1 to 2 mg/kg. Also, the IC50 with platelets worked out at 6 nM; with thrombin [3] it was 10.5 nM; with human plasma clotting, 52 nM. Also, the “Decrease of platelet deposition on arterial media relative to baseline control, mean” value in assay [4] (four animals) stood at 61.2%. In addition, the “Platelet deposition after drug infusion, X±SEM” value in assay [4] (i.v. bolus 0.2 mg/kg then infusion 0.2 mg/kg/hr, four animals, paired T P=0.0001) is recorded as 39.8±12.7 % of control. Moreover, in assay [4] (i.v. bolus 0.2 mg/kg then infusion 0.2 mg/kg/hr, mean of three determinations per animal, animals 1-4, listed as BCH-1710), the “Platelet deposition after drug infusion, single animals” value is 31.9 % of control and 23.7 % of control and 3.7 % of control and 84.3 % of control. In the assay with thrombin [2], this substance had a Ki of 1.5 nM. Besides, the “Bolus Dose needed to cause 2-4 fold increase in APTT” value in assay [5] stood at 1 mg/kg. The “Infusion Dose needed to cause 2-4 fold increase in APTT” value in assay [5] came to 125. In addition, the “Minimum Bolus dose needed to achieve patency” value in assay [6] was in the range of 0.5 to 2 mg/kg.

As for “Hirulog: comparator thrombin inhibitor, BCH number 1724”, in assay [6], the “Minimum Bolus dose needed to achieve patency” value fell in the range of 0.05 to 0.125 mg/kg.

For heparin [reference compound], in assay [1], the “Dose needed to cause a doubling in patency time” value is recorded as 200 U/kg. In assay [5], the “Bolus needed to achieve the same increase in APTT” value was determined as 25 U and the “Infusion needed to achieve the same increase in APTT” value came out at 0.5 U/kg/min. In assay [6], the “Dose needed to achieve patency” value is on record as 10-15 U.

In general, Ki refers to a dissociation constant, usually derived from enzyme kinetics or from competition with a known ligand.

(Values after patent publication US6060451A, “Thrombin inhibitors based on the amino acid sequence of hirudin” (The National Research Council of Canada, priority 1995, dated 2000).)
